Data published in patent US10632127B2, “Targeted notch pathway inhibitors” (Hoffmann-La Roche Inc., priority 2015, dated 2020).
Structures can show the parent of a compound that is named as a salt. Where two headings read alike, the source gives them in different places. Blank lines part the entries; values can stand above or below the compound they belong to.

Legend:
[1] = system: Notch signal transduction pathway; assay: In vitro Notch signal transduction pathway activity assay (DR215/F2 luciferase reporter); type: cell-based, human; settings: for IC50: Homo sapiens, 215/F2 reporter cell line, 19 h, mean of at least 3 experiments; for IC50 for blockade of the Notch pathway, range in words: DR215/F2 cell reporter assay
Description: The compounds were dissolved in dimethyl sulfoxide (DMSO) at 10 mM stock solution, aliquoted and stored at −4° C. until use, then diluted in PBS or cell culture medium. In the experimental settings, controls containing increasing concentrations of DMSO, corresponding to the amount of DMSO of the diluted compounds were always included. For in vivo experiments, the compounds were dissolved in 0.9% NaCl, incubated 30 min at 40° C. and sonicated for 5 min.
The requirement of proteolytic activation of the prodrugs to inhibit Notch cleavage by the γ-secretase, was investigated using a reporter assay (Table 3). The DR215/F2 cell line expresses a reporter construct designed to monitor the activity of the Notch signal transduction pathway. The DR215/F2 cell line 39 carries two transgenes: the firefly luciferase reporter gene expressed under the control of the Gal4 promoter and the human Notch1 activator gene fused with the yeast Gal4 transcription factor. This assay confirmed that the prodrugs were able to inhibit γ-secretase and the activation of the Notch pathway. The DR215/F2 cell reporter assay was also used to determine the IC50 for blockade of the Notch pathway by all the compounds designed and prepared.
The values were determined using the 215/F2 reporter cell line for Notch activation by the γ-secretase. All values are the mean of at least 3 experiments.
The preparation and characterization of rat brain-derived EC219 endothelial cells have been described in Juillerat-Jeanneret, L. et al. In Vitro Cell. Dev. Biol. 1992, 28A, 537-543. These cells express high levels of APA and γ-GT activities and can be used for determining kinetics in living cells, and were chosen as APA- and γ-GT-positive representative cell models. EC219 cells were grown in DMEM medium containing 1 g/l glucose, 10% heat-inactivated fetal calf serum (FCS, EuroClone, UK) supplemented with 100 U/mL penicillin and 100 μg/mL streptomycin (P/S) on uncoated cell culture plastic ware. The HEK293 and HK2 human kidney cells are available from the ATCC (American Tissue Culture Collection, Manassas, Va., USA). HEK293 cells were grown on uncoated cell culture plastic ware in Iscove modified Dulbecco medium (IMDM, Life Technologies) containing 10% FCS and P/S. HK2 cells were grown on uncoated cell culture plastic ware in DMEM/F-12 GlutaMAX medium (Gibco) containing 5% FCS, P/S, 1% ITS (1.0 mg/ml bovine insulin, 0.55 mg/ml human transferrin and 0.5 μg/ml sodium selenite, Sigma-Aldrich) and 5 ng/ml hydrocortisone. The human HEK293-derived DR215/F2 embryonic kidney cell line, stably transfected with pFR Luc and APP-Notch Gal (plasmid DR215) as described in WO 2006/061136 A2 and Brockhaus, M. Neuroreport 1998 9, 1481-1486, were maintained using IMDM with 10% FCS supplemented with P/S and kept under double-selection with 150 μg/ml G-418 and 50 μg/ml hygromycin B on coated (1:100 Poly-L-lysine) cell culture plastic ware. In this assay, the Notch-Gal4 protein is bound to the cell membrane via its trans-membrane domain. The Notch intracellular domain is released by proteolytic cleavage mediated by the γ-secretase and moves to the cell nucleus where it activates the reporter luciferase gene transcript. Inhibition of γ-secretase thus decreases luciferase activity. Briefly, cultures were grown in 96-well microplates to 80% confluence; the cells were then washed in PBS and exposed to decreasing concentrations of the γ-secretase-inhibitor analogues in complete IMDM culture medium without red phenol at 37° C. for 19 h. Then 75 μl of supernatant from each well was removed and the luciferase activity was determined by adding 25 μl of Steady-Glo luciferase assay reagent (Promega).

[2] = Pharmacokinetic assessment in male Wistar rats (i.v.); type: in vivo, rat; settings: for concentration at 0.25 h / concentration at 0.5 h: rat, intravenous
Description: (§1) For PK evaluation, the compounds were administered i.p to male C57BL/6 mice in suspension (gelatine/saline 7.5%/0.62% in water) using an administration volume of 4 mL/kg. Blood samples were collected in tubes containing EDTA, plasma was separated by centrifugation and stored at −80° C. Liver and kidney samples (˜100 mg aliquots) were homogenized in three volumes of water using Precellys tissue homogenization tubes (precellys.com). 25 μL of each tissue homogenate was further diluted with 25 μL blank plasma to produce the final tissue homogenate for extraction. All samples were analyzed using protein precipitation followed by LC-MS/MS analysis. Briefly, 50 μL plasma or final tissue homogenate were mixed with 50 μL 0.5M HClO4/acetonitrile 9/1 (containing 200 ng/mL internal standard bosentan). Samples were stirred and 300 μL water was added followed by centrifugation at 5600 rpm (4° C., 10 min). 10 μL supernatant was analyzed by LC/MS analysis. Calibration standards in plasma were prepared the same way. The LC column and conditions used were: Phenomenex, Polar RP, 4 μm, 50×2.1 mm at 0.4 mL/min flow rate with a 3 min gradient from 95% solvent A to 95% solvent B (Solvent A: Water/ACN/HCOOH, 90:10:0.1+10 mM NH4 formate; Solvent B: Water/ACN/HCOOH, 10:90:0.1+10 mM NH4 formate). Mass spectrometric conditions were: Thermo TSQ Vantage with positive heated electrospray ionization in MS/MS mode. Compounds mass transitions monitored were m/z 320.7 to 119.9. PK parameters for all studies were calculated using Phoenix WinNonlin Software.
We next determined the stability, tissue distribution and cleavage rate in plasma, liver and kidney of the designed prodrugs in male Wistar rats. In the in vivo screen, the kinetics and distribution of the prodrugs Ac-γ-Glu-SecrI (13a) and Ac-γ-Glu-O-SecrI (13c) were compared with the active γ-secretase inhibitor SecrI (8). After i.v. administration in male Wistar rats, the disappearance of the prodrugs and the formation of the active amine-SecrI (11a), amine-O-SecrI (11b) and SecrI (8) were compared in plasma, liver and kidney (Table 7A-C). First, we determined the pharmacokinetics (PK) behavior of SecrI (8) following i.v. administration (Table 7A). […] Liver and kidney exposure were much higher, with same exposure in liver and kidney. […] The selectivity towards kidney stayed constant over time. The carbonate analogue Ac-γ-Glu-O-SecrI (13c) prodrug was converted to a lower extent than the Ac-γ-Glu-SecrI (13a) to amine-O-SecrI (11b) but more to the linker free γ-secretase inhibitor 8 (Table 7C).
Plasma and tissue concentrations of administered compound (A-C) and formed amine-SecrI (11a), amine-O-SecrI (11b) or SecrI (8) (B-C) were determined following i.v. administration in rats (no standard deviation given due to sparse sampling; n≤3 rats per time point). Numbers in parentheses represent relative amounts with the exposure of kidney arbitrarily set at each time point to 100%. […] BQL=below quantifiable limit.

[3] = Pharmacokinetic assessment in C57BL/6 healthy wild-type mice (i.p.); type: in vivo, mouse; settings: C57BL/6 mice, 10 mg/kg i.p.
Description: as §1
We next determined the stability, tissue distribution and cleavage rate in plasma, liver and kidney of the designed prodrugs in non-diseased mice. In the in vivo screen, the kinetics and distribution of γ-secretase inhibitor prodrugs Ac-γ-Glu-SecrI (13a), Ac-α-Glu-SecrI (15a) and H-α-Glu-SecrI (15b) were compared with the active γ-secretase inhibitor amine-SecrI (11a). After i.p administration (10 mg/kg) in C57BL/6 mice, the disappearance of the prodrugs and the formation of the active amine-SecrI (11a) were compared in plasma, liver and kidney (Table 5). First, we determined the pharmacokinetics (PK) behavior of amine-SecrI (11a) following i.p. administration (Table 5A). […] Liver and kidney exposure were much higher, with approximately 4.5-fold higher exposure in liver compared to kidney. […] The selectivity towards kidney appeared to decrease over time, probably due to fast clearance and re-equilibration of the amine-SecrI (11a). However, the high selectivity at earlier time-points assured that the total exposure over time was much higher in the kidney compared to the liver.

IC50 [1]: 170 nM
Kidney concentration of 13c ([2]; 13c 1.5 mg/kg i.v., 4 h): BQL
Liver concentration of 13c ([2]; 13c 1.5 mg/kg i.v., 4 h): BQL
Plasma concentration of 13c ([2]; 13c 1.5 mg/kg i.v., 4 h): BQL
Kidney concentration of 13c ([2]; 13c 1.5 mg/kg i.v., 7 h): BQL
Liver concentration of 13c ([2]; 13c 1.5 mg/kg i.v., 7 h): BQL
Plasma concentration of 13c ([2]; 13c 1.5 mg/kg i.v., 7 h): BQL
conversion to amine-O-SecrI (11b), in words ([2]; 13c i.v., compared with 13a): lower extent
conversion to the linker-free γ-secretase inhibitor 8, in words ([2]; i.v.): significantly converted
concentration at 0.25 h ([2]; kidney, 13c 1.5 mg/kg i.v., 0.25 h, read-out: Kidney concentration of 13c): 20.5 ng/g
concentration at 0.5 h ([2]; kidney, 13c 1.5 mg/kg i.v., 0.5 h, read-out: Kidney concentration of 13c): 3.8 ng/g
concentration at 0.25 h ([2]; liver, 13c 1.5 mg/kg i.v., 0.25 h, read-out: Liver concentration of 13c): 196 ng/g
concentration at 0.5 h ([2]; liver, 13c 1.5 mg/kg i.v., 0.5 h, read-out: Liver concentration of 13c): 32.3 ng/g
concentration at 0.25 h ([2]; plasma, 13c 1.5 mg/kg i.v., 0.25 h, read-out: Plasma concentration of 13c): 53 ng/mL
concentration at 0.5 h ([2]; plasma, 13c 1.5 mg/kg i.v., 0.5 h, read-out: Plasma concentration of 13c): 4.6 ng/mL
SMILES: CC(=O)N[C@@H](CCC(=O)NCCOC(=O)OCCN1C(=O)[C@@H](NC(=O)[C@@](C)(O)C(=O)NCC(F)(F)C(F)(F)F)[C@@H](C)Oc2ccc(F)cc21)C(=O)O [Compound 13c, (S)-2-acetamido-5-(2-((2-((2R,3S)-7-fluoro-3-((S)-2-hydroxy-2-methyl-3-oxo-3-(2,2,3,3,3-pentafluoropropylamino)propanamido)-2-methyl-4-oxo-3,4-dihydrobenzo[b][1,4]oxazepin-5(2H)-yl)ethoxy)carbonyloxy)ethylamino)-5-oxopentanoic acid]

IC50 for blockade of the Notch pathway, range in words [1]: low nanomolar range
IC50 [1]: 0.5 nM
Plasma concentration of formed 11b ([2]; 13c 1.5 mg/kg i.v., 0.25 h): BQL
Plasma concentration of formed 11b ([2]; 13c 1.5 mg/kg i.v., 0.5 h): BQL
Plasma concentration of formed 11b ([2]; 13c 1.5 mg/kg i.v., 4 h): BQL
Formed 11b in kidney, relative amount (arbitrarily set to 100%) ([2]; 13c 1.5 mg/kg i.v., 7 h): (100) %
Plasma concentration of formed 11b ([2]; 13c 1.5 mg/kg i.v., 7 h): BQL
kidney selectivity, in words ([2]; formed after 13c i.v.): very good kidney selectivity
SMILES: C[C@H]1Oc2ccc(F)cc2N(CCOC(=O)OCCN)C(=O)[C@H]1NC(=O)[C@@](C)(O)C(=O)NCC(F)(F)C(F)(F)F [Compound 11b, 2-Aminoethyl 2-((2R,3S)-7-fluoro-3-((S)-2-hydroxy-2-methyl-3-oxo-3-(2,2,3,3,3-pentafluoropropylamino)propanamido)-2-methyl-4-oxo-3,4-dihydrobenzo[b][1,4]oxazepin-5(2H)-yl)ethyl carbonate hydrochloride]

IC50 for blockade of the Notch pathway, range in words [1]: high nM range
IC50 [1]: 258 nM
conversion to amine-SecrI (11a), in words [3]: overall highest conversion
Kidney concentration of administered compound ([3]; 4 h): BQL
Plasma concentration of administered compound ([3]; 4 h): BQL
Kidney concentration of administered compound ([3]; 7 h): BQL
Plasma concentration of administered compound ([3]; 7 h): BQL
concentration at 0.5 h ([3]; male, mouse, kidney, ip, read-out: Kidney concentration of administered compound): 8.51 ng/g
concentration at 0.5 h ([3]; male, mouse, liver, ip, read-out: Liver concentration of administered compound): 277 ng/g
concentration at 4 h ([3]; male, mouse, liver, ip, 4 h, read-out: Liver concentration of administered compound): 60.7 ng/g
concentration at 7 h ([3]; male, mouse, liver, ip, 7 h, read-out: Liver concentration of administered compound): 5.78 ng/g
concentration at 0.5 h ([3]; male, mouse, plasma, ip, read-out: Plasma concentration of administered compound): 3.67 ng/mL
SMILES: C[C@H]1Oc2ccc(F)cc2N(CCOC(=O)NCCNC(=O)[C@@H](N)CCC(=O)O)C(=O)[C@H]1NC(=O)[C@@](C)(O)C(=O)NCC(F)(F)C(F)(F)F [Compound 15b, (S)-4-amino-5-(2-((2-((2R,3S)-7-fluoro-3-((S)-2-hydroxy-2-methyl-3-oxo-3-(2,2,3,3,3-pentafluoropropylamino)propanamido)-2-methyl-4-oxo-3,4-dihydrobenzo[b][1,4]oxazepin-5(2H)-yl)ethoxy)carbonylamino)ethylamino)-5-oxopentanoic acid hydrochloride]
